Assay results reported in ChEMBL document CHEMBL1201862, “PubChem BioAssay data set” (2004).
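Grown in 96-well plates, cells were treated for 48 hours with each compound at five concentrations. Insufficient inhibition: endpoint recorded as highest concentration tested. Abbreviation: GI50, concentration required for 50% inhibition of growth.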 Calls of active or inactive are those of the source. No stated cut-off is given here; in the data, active = GI50 up to about 1.1 µM and inactive = higher.

Columns and labels:
Assay in all cases: NCI-60 cell line screen, 48 h
SF-268 = system: SF-268
UACC-257 = system: UACC-257
OVCAR-8 = system: OVCAR-8
A498 = system: A498
NCI-H522 = system: NCI-H522
HCT-116 = system: HCT-116
HT-29 = system: HT-29
COLO 205 = system: COLO 205
NCI-H226 = system: NCI-H226
HOP-92 = system: HOP-92
SK-MEL-2 = system: SK-MEL-2
CAKI-1 = system: CAKI-1
MDA-MB-435 = system: MDA-MB-435
NCI/ADR-RES = system: NCI/ADR-RES
IGROV-1 = system: IGROV-1
T47D = system: T47D
UACC-62 = system: UACC-62
SK-MEL-28 = system: SK-MEL-28
SF-295 = system: SF-295
SK-OV-3 = system: SK-OV-3

Measured: GI50

CCOC(=O)c1cc2cc([N+](=O)[O-])ccc2oc1=O
inactive: SF-268 39.3 µM | UACC-257 > 100 µM | OVCAR-8 > 100 µM | A498 > 100 µM | NCI-H522 > 100 µM | HCT-116 93.3 µM | HT-29 > 100 µM | COLO 205 > 100 µM | NCI-H226 > 100 µM | HOP-92 > 100 µM | SK-MEL-2 > 10 µM | CAKI-1 > 100 µM | MDA-MB-435 > 100 µM | NCI/ADR-RES > 100 µM | IGROV-1 > 100 µM | T47D > 100 µM | UACC-62 24.3 µM | SK-MEL-28 > 100 µM | SF-295 > 100 µM

COC(=O)/C=C1/OC(c2ccccc2)=C(C)C1=O
inactive: SF-268 17.9 µM | OVCAR-8 6.08 µM | A498 18.7 µM | NCI-H522 12.6 µM | HCT-116 4.18 µM | HT-29 1.98 µM | COLO 205 17.5 µM | NCI-H226 15.8 µM | HOP-92 13.2 µM | SK-OV-3 10.7 µM | CAKI-1 4.05 µM | MDA-MB-435 13.9 µM | NCI/ADR-RES 20.9 µM | IGROV-1 14.1 µM | T47D 20.1 µM | UACC-62 4.12 µM | SK-MEL-28 16.8 µM | SF-295 13.3 µM

NC(=O)c1nnc2cc(F)ccc2c1N
inactive: SF-268 > 100 µM | UACC-257 > 100 µM | OVCAR-8 > 100 µM | A498 91.6 µM | NCI-H522 46.3 µM | HCT-116 > 100 µM | HT-29 > 100 µM | COLO 205 > 100 µM | NCI-H226 58.2 µM | SK-MEL-2 > 100 µM | SK-OV-3 85.5 µM | CAKI-1 91.2 µM | MDA-MB-435 > 100 µM | NCI/ADR-RES > 100 µM | IGROV-1 > 100 µM | T47D > 100 µM | UACC-62 97.3 µM | SF-295 > 100 µM

CCCCCC/C=C\CCCCCCCCCC1=C(CN2CCN(C)CC2)C(=O)C=C(OC)C1=O
inactive: SF-268 5.61 µM | UACC-257 13.3 µM | OVCAR-8 4.53 µM | A498 17.5 µM | NCI-H522 1.55 µM | HCT-116 2.14 µM | HT-29 7.28 µM | COLO 205 1.71 µM | NCI-H226 14.2 µM | HOP-92 2.64 µM | SK-OV-3 13.2 µM | CAKI-1 2.73 µM | MDA-MB-435 8.65 µM | NCI/ADR-RES 3.58 µM | IGROV-1 5.93 µM | T47D 2.28 µM | UACC-62 12.9 µM | SK-MEL-28 13.6 µM | SF-295 6.3 µM

CC(C)(Cc1ccccc1)Cc1cc(O)ccc1O
inactive: SF-268 13.9 µM | UACC-257 13.9 µM | OVCAR-8 17.2 µM | A498 22 µM | NCI-H522 4.93 µM | HCT-116 15.8 µM | HT-29 20.6 µM | COLO 205 19.2 µM | NCI-H226 33.8 µM | HOP-92 14.4 µM | SK-OV-3 24.7 µM | CAKI-1 20.7 µM | MDA-MB-435 17.2 µM | NCI/ADR-RES 16.4 µM | IGROV-1 26.9 µM | T47D 5.9 µM | UACC-62 23.7 µM | SK-MEL-28 21.8 µM | SF-295 18 µM

CCOC(=O)c1nc2cc(C(F)(F)F)ccc2nc1Nc1ccc(OC)c(OC)c1
inactive: SF-268 > 100 µM | UACC-257 > 100 µM | OVCAR-8 > 100 µM | A498 > 100 µM | NCI-H522 > 100 µM | HCT-116 > 100 µM | HT-29 > 100 µM | COLO 205 > 100 µM | HOP-92 > 100 µM | SK-OV-3 > 100 µM | CAKI-1 > 100 µM | MDA-MB-435 > 100 µM | NCI/ADR-RES > 100 µM | IGROV-1 > 100 µM | T47D 71.3 µM | UACC-62 > 100 µM | SK-MEL-28 > 100 µM | SF-295 > 100 µM

CCOC(=O)/C=C(/C(=O)OCC)n1ccc(N)nc1=O
inactive: SF-268 > 100 µM | UACC-257 > 100 µM | OVCAR-8 > 100 µM | NCI-H522 23.6 µM | HCT-116 > 100 µM | HT-29 62.1 µM | COLO 205 66.1 µM | NCI-H226 > 100 µM | HOP-92 53.3 µM | SK-MEL-2 > 100 µM | SK-OV-3 > 100 µM | CAKI-1 37 µM | MDA-MB-435 > 100 µM | NCI/ADR-RES > 100 µM | IGROV-1 > 100 µM | T47D > 100 µM | UACC-62 > 100 µM | SK-MEL-28 > 100 µM | SF-295 > 100 µM

CSc1ccccc1NC1=NCCO1
inactive: SF-268 > 100 µM | UACC-257 > 100 µM | OVCAR-8 > 100 µM | A498 > 100 µM | NCI-H522 > 100 µM | HCT-116 > 100 µM | HT-29 > 100 µM | COLO 205 > 100 µM | NCI-H226 > 100 µM | HOP-92 > 100 µM | SK-MEL-2 > 100 µM | CAKI-1 > 100 µM | MDA-MB-435 > 100 µM | NCI/ADR-RES > 100 µM | IGROV-1 > 100 µM | T47D > 100 µM | UACC-62 > 100 µM | SK-MEL-28 > 100 µM | SF-295 > 100 µM

CCN(CC)c1ccc2cc(-c3nc(O)c4ccccc4n3)c(=N)oc2c1
inactive: SF-268 > 100 µM | UACC-257 > 100 µM | OVCAR-8 > 100 µM | NCI-H522 > 100 µM | HCT-116 > 100 µM | HT-29 > 100 µM | COLO 205 > 100 µM | NCI-H226 > 100 µM | HOP-92 > 100 µM | SK-MEL-2 > 100 µM | SK-OV-3 > 100 µM | CAKI-1 > 100 µM | MDA-MB-435 > 100 µM | NCI/ADR-RES > 100 µM | IGROV-1 > 100 µM | T47D > 100 µM | UACC-62 > 100 µM | SK-MEL-28 > 100 µM | SF-295 > 100 µM

C=C1CC(O)C2C(=C)C(=O)OC2C2C(C)C(=O)CC12 (stereo not given)
inactive: SF-268 22.2 µM | UACC-257 12.6 µM | OVCAR-8 21.3 µM | A498 29.4 µM | NCI-H522 5.16 µM | HCT-116 10 µM | HT-29 18.7 µM | COLO 205 7.33 µM | HOP-92 13 µM | SK-MEL-2 18.9 µM | SK-OV-3 33 µM | CAKI-1 4.57 µM | MDA-MB-435 11.3 µM | NCI/ADR-RES 18.4 µM | IGROV-1 18.4 µM | T47D 16.9 µM | UACC-62 15.3 µM | SK-MEL-28 14.3 µM | SF-295 27.6 µM

CCOc1ccc2c(c1)c(CC(=O)O)cn2C
inactive: SF-268 > 100 µM | UACC-257 > 100 µM | OVCAR-8 > 100 µM | NCI-H522 > 100 µM | HCT-116 > 100 µM | HT-29 > 100 µM | COLO 205 > 100 µM | NCI-H226 > 100 µM | HOP-92 45.6 µM | SK-MEL-2 > 100 µM | SK-OV-3 > 100 µM | CAKI-1 > 100 µM | MDA-MB-435 > 100 µM | NCI/ADR-RES > 100 µM | T47D > 100 µM | UACC-62 > 100 µM | SK-MEL-28 > 100 µM | SF-295 > 100 µM

NC(N)=NCc1ccc2c(c1)OCO2
inactive: SF-268 > 100 µM | A498 28.2 µM | NCI-H522 > 100 µM | HCT-116 78.3 µM | HT-29 72.9 µM | HOP-92 54.1 µM | SK-MEL-2 > 100 µM | SK-OV-3 > 100 µM | CAKI-1 44.9 µM | MDA-MB-435 73.1 µM | NCI/ADR-RES > 100 µM | IGROV-1 > 100 µM | T47D > 100 µM | UACC-62 > 100 µM | SK-MEL-28 67.3 µM | SF-295 67 µM

CCOC1NC(=O)c2ccccc21 (stereo not given)
inactive: SF-268 > 100 µM | UACC-257 > 100 µM | OVCAR-8 > 100 µM | NCI-H522 > 100 µM | HCT-116 > 100 µM | HT-29 > 100 µM | COLO 205 > 100 µM | NCI-H226 > 100 µM | HOP-92 > 100 µM | SK-OV-3 > 100 µM | MDA-MB-435 > 100 µM | NCI/ADR-RES > 100 µM | IGROV-1 > 100 µM | T47D > 100 µM | UACC-62 > 100 µM | SK-MEL-28 > 100 µM | SF-295 > 100 µM

O=C1/C(=C/c2ccc(Cl)cc2)N=C(c2ccccc2)N1c1nc2c(Cl)cc(Cl)cc2s1
inactive: SF-268 43.9 µM | UACC-257 41.7 µM | OVCAR-8 31.9 µM | A498 18.2 µM | HCT-116 20 µM | HT-29 23.9 µM | COLO 205 37.9 µM | HOP-92 26.2 µM | SK-MEL-2 20.8 µM | SK-OV-3 28.1 µM | CAKI-1 36.5 µM | MDA-MB-435 24.7 µM | NCI/ADR-RES 27.2 µM | IGROV-1 32.4 µM | T47D 25.1 µM | UACC-62 28.4 µM | SK-MEL-28 44.5 µM | SF-295 30.6 µM

O/N=C\c1c2c(cc3c1CCC3)CCC2
inactive: SF-268 > 100 µM | UACC-257 > 100 µM | OVCAR-8 > 100 µM | A498 34.1 µM | NCI-H522 > 100 µM | HCT-116 > 100 µM | HT-29 > 100 µM | COLO 205 > 100 µM | NCI-H226 > 100 µM | SK-MEL-2 > 100 µM | SK-OV-3 > 100 µM | CAKI-1 > 100 µM | MDA-MB-435 > 100 µM | NCI/ADR-RES > 100 µM | IGROV-1 > 100 µM | T47D 49.5 µM | UACC-62 > 100 µM | SK-MEL-28 > 100 µM | SF-295 > 100 µM
